Literature values, collected in patent publication US9580717B2, “Heterologous hosts” (priority 2009, dated 2017).

How the values were obtained:
P388 leukaemia cells = settings: mouse, in vivo
[1] = test system: malignant mammalian cells

Row | Structure (SMILES) | lifespan of mice inoculated with P388 leukaemia cells (P388 leukaemia cells) | cytotoxicity to tumour cell lines (tumour cell lines) | cytopathic activity against malignant mammalian cells [1]
1 | CCCCCCC/C=C/C=C/C(=O)N[C@H](C(=O)N[C@H]1C[C@@H](O)CCNC(=O)/C=C/[C@H](C)NC1=O)[C@@H](C)O [Glidobactin A] | can prolong the lifespan | cytotoxic to tumour cell lines | 
2 | C[C@H]1CCC(C2=C(CC(=O)NCC(=O)c3csc(C(=O)C(=O)c4csc(CNC(=O)CC5=C(C6=N[C@@H](C)CC6)C(=O)NC56CC6)n4)n3)C3(CC3)NC2=O)=N1 [Colibactin] |  |  | cytopathic activity
